The subject of assay [1] is NRF2 mediated gene NAD(P)H:quinone acceptor oxidoreductase 1 (NQO1) in BEAS-2B cells. In words: Beas2B NQO1 mRNA Cell Based Assay. Also noted: species or system human. Conditions: Homo sapiens; BEAS-2B cells, compound for 24 h; increase in NQO1 mRNA compared to vehicle (0.1% DMSO) control; read-out: EC50. On the procedure:
Beas2B NQO1 mRNA Cell Based Assay
The up regulation of the NRF2 mediated gene NAD(P)H:quinone acceptor oxidoreductase 1 (NQO1) was measured using the following assay method: BEAS-2B cells (ATCC CRL-9609) were plated in 96-well clear plates at 20,000 cells/well in 75 μL of cell culture media and incubated overnight (37° C., 5% CO2). On day 2, 25 μL of compound or controls were added to the cells for 24 h. On day 3, the medium was aspirated from the plate and the Cells-to-CT™ 1-Step TaqMan® Kit (Ambion A25603) was used to perform expression analysis directly from cultured cells without RNA purification according to the manufacturer's instructions.
Briefly, cells were washed with ice cold PBS and 22.5 μL of room-temperature DNase/Lysis solution was added to the cells and incubated at room temperature for 5 minutes. To stop the reaction, 2.25 μL of stop solution was added to the cell lysate. The samples were diluted 1:5 using nuclease free water and 2.5 μL transferred into the PCR plate. Real-time PCR was performed using the C-1000 Thermal Cycler (Bio-Rad) using human beta actin as the internal control. The cDNA was amplified with a specific primer for NQO1 using the 1-step RT-PCR master mix (Ambion Cells-to-CTTM 1-Step TaqMan® Kit A25603). The primers/probes sets that were used for amplification of cDNA were obtained from TaqMan Gene Expression Assays (Applied Biosystems). The comparative CT (ΔΔCT) relative quantification method was used to calculate the relative mRNA level of the target gene NQO1 as described in the Applied Biosystems Chemistry Guide. The data are expressed as an increase in target gene mRNA compared to vehicle (0.1% DMSO) control and the EC50 values were determined by fitting the data to a four parameter logistic fit using XLfit or XE Runner within ActivityBase.

For assay [2], the target named is T1, human KEAP1 (N-term, residues 321-609) (Homo sapiens, UniProt Q14145).
T1 construct: human KEAP1 (N-term, residues 321-609)
T1 sequence (Q14145 321-609): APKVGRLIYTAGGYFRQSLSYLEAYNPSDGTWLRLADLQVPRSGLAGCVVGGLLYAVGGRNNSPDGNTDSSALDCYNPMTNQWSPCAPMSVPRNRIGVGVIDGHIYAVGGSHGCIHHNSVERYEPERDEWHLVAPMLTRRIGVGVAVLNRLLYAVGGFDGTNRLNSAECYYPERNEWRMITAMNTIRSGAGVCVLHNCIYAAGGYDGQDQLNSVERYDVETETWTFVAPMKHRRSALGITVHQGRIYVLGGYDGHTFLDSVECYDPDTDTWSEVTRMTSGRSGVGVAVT
In words: KEAP1 Kelch Fluorescence Polarization (FP) Assay. Type of assay: binding. Particulars: inhibition of Kelch domain-NRF2 interaction; 2 nM FITC-labelled NRF2 peptide, 25 nM KEAP1, 1 h room temperature; compounds below 10 nM cannot be differentiated. On the procedure: KEAP1 Kelch Fluorescence Polarization (FP) Assay Method
Inhibition of the Kelch domain-NRF2 interaction was determined using a fluorescence polarization-based competition assay in a black 384-well microplate. Compounds were tested at a starting concentration of 10 μM serially diluted 1:3 to generate a 12-point dose response curve on the Biomek FX robot. Each well contained 2 nM FITC-labelled NRF2 peptide (FITC-LDEETGEFL-NH2) and 25 nM human KEAP1 (N-term, residues 321-609) enzyme in a final volume of 20 μL of assay buffer (50 mM Tris-HCl pH 8.0, 100 mM NaCl, 5 mM MgCl2, 0.005% Tween-20, 0.005% BSA, 0.5% DMSO) in the presence of varying concentrations of test compound. Unlabelled peptide (LDEETGEFL-NH2) at 50 μM (negative control) and 0.5% DMSO (positive control) was used to determine the assay window.
After 1 h at room temperature, fluorescence polarization (excitation 470 nm/emission 530 nm) was measured using an Envision plate reader. IC50 values were determined by fitting the data to a four parameter logistic fit using XLfit or XE Runner within ActivityBase. The assay limit is such that compounds below 10 nM cannot be differentiated.
A general note: In fluorescence polarisation assays a small probe gives low polarisation when free and higher when bound to something large.

For orientation: EC50 means the concentration giving half of the maximal effect. The IC50 is the concentration at which inhibition is half-maximal. A lower IC50 goes with greater potency. Regarding `CNC(=O)[C@@]1(C)CCCC[C@H]1C(=O)N1CCc2c(Cl)ccc(OCc3nnn(C)c3COC)c2[C@H]1CN1C[C@H](C)CC1=O` [Example 105, (1S,2R)-2-((S)-5-chloro-8-((5-(methoxymethyl)-1-methyl-1H-1,2,3-triazol-4-yl)methoxy)-1-(((R)-4-methyl-2-oxopyrrolidin-1-yl)methyl)-1,2,3,4-tetrahydroisoquinoline-2-carbonyl)-N,1-dimethylcyclohexane-1-carboxamide], in assay [1], the EC50 is 0.79 µM. For the same compound, the IC50 in assay [2] is 0.017 µM. The matching figures for `CNC(=O)[C@H]1CCCC[C@H]1C(=O)N1CCc2c(Cl)ccc(OCc3nnn(C)c3C(F)F)c2[C@H]1CN1CCCC1=O` [Example 58, (1S,2R)-2-((S)-5-chloro-8-((5-(difluoromethyl)-1-methyl-1H-1,2,3-triazol-4-yl)methoxy)-1-((2-oxopyrrolidin-1-yl)methyl)-1,2,3,4-tetrahydroisoquinoline-2-carbonyl)-N-methylcyclohexane-1-carboxamide]: 0.206 µM and 0.011 µM. Consider `NC(=O)[C@H]1CCCC[C@H]1C(=O)N1CCc2cccc(OCCCC(=O)N3CCCC3)c2[C@H]1CN1C(=O)c2ccccc2C1=O` [Example 1, (1S,2R)-2-((S)-1-((1 ,3-dioxoisoindolin-2-yl)methyl)-8-(4-oxo-4-(pyrrolidin-1-yl)butoxy)-1,2,3,4-tetrahydroisoquinoline-2-carbonyl)cyclohexane-1-carboxamide], for which the EC50 in assay [1] worked out at 2.03 µM. The compound also gave an IC50 in assay [2] of 0.901 µM. The corresponding values for `CNC(=O)[C@@]1(C)CCCC[C@H]1C(=O)N1CCc2c(Cl)ccc(OCc3nnn(C)c3C(F)F)c2[C@H]1CN1CCCC1=O` [Example 69, (1S,2R)-2-((S)-5-chloro-8-((5-(difluoromethyl)-1-methyl-1H-1,2,3-triazol-4-yl)methoxy)-1-((2-oxopyrrolidin-1-yl)methyl)-1,2,3,4-tetrahydroisoquinoline-2-carbonyl)-N,1-dimethylcyclohexane-1-carboxamide] are 0.239 µM and 0.014 µM. The corresponding values for `CCNC(=O)[C@H]1CCCC[C@H]1C(=O)N1CCc2cccc(O[C@H]3CCN(C(=O)c4cncs4)C3)c2[C@H]1CN1C(=O)c2ccccc2C1=O` [Example 42, (1S,2R)-2-((S)-1-((1,3-dioxoisoindolin-2-yl)methyl)-8-(((S)-1-(thiazole-5-carbonyl)pyrrolidin-3-yl)oxy)-1,2,3,4-tetrahydroisoquinoline-2-carbonyl)-N-ethylcyclohexane-1-carboxamide] are 0.58 µM and 0.053 µM. Consider `CNC(=O)N1CCCC[C@H]1C(=O)N1CCc2c(Cl)ccc(OCc3nnn(C)c3C(F)F)c2[C@H]1CN1CCCC1=O` [Example 79, (S)-2-((S)-5-chloro-8-((5-(difluoromethyl)-1-methyl-1H-1,2,3-triazol-4-yl)methoxy)-1-((2-oxopyrrolidin-1-yl)methyl)-1,2,3,4-tetrahydroisoquinoline-2-carbonyl)-N-methylpiperidine-1-carboxamide], for which the EC50 in assay [1] was determined as 0.336 µM. Moreover, the IC50 in assay [2] is 0.014 µM. Take `CNC(=O)[C@H]1CCCC[C@H]1C(=O)N1CCc2c(Cl)ccc(OCc3ccc4c(c3)nnn4C)c2[C@H]1CN1CCCC1=O` [Example 72, (1S,2R)-2-((S)-5-chloro-8-((1-methyl-1H-benzo[d][1,2,3]triazol-5-yl)methoxy)-1-((2-oxopyrrolidin-1-yl)methyl)-1,2,3,4-tetrahydroisoquinoline-2-carbonyl)-N-methylcyclohexane-1-carboxamide]: in assay [1], the EC50 worked out at 0.605 µM. In addition, the IC50 in assay [2] worked out at 0.027 µM. The matching figures for `C[C@]1(C(N)=O)CCCC[C@H]1C(=O)N1CCc2c(Cl)cc(F)c(OCc3nnn4c3CCCC4)c2[C@H]1CN1CC2(CC2)CC1=O` [Example 111, (1S,2R)-2-((S)-5-chloro-7-fluoro-1-((6-oxo-5-azaspiro[2.4]heptan-5-yl)methyl)-8-((4,5,6,7-tetrahydro-[1,2,3]triazolo[1,5-a]pyridin-3-yl)methoxy)-1,2,3,4-tetrahydroisoquinoline-2-carbonyl)-1-methylcyclohexane-1-carboxamide]: 0.03 µM and 0.0072 µM. The matching figures for `CNC(=O)[C@@]1(C)CCCC[C@H]1C(=O)N1CCc2c(Cl)ccc(OCc3nnn(C)c3C3CC3)c2[C@H]1CN1C[C@H](C)CC1=O` [Example 113, (1S,2R)-2-((S)-5-chloro-8-((5-cyclopropyl-1-methyl-1H-1,2,3-triazol-4-yl)methoxy)-1-(((R)-4-methyl-2-oxopyrrolidin-1-yl)methyl)-1,2,3,4-tetrahydroisoquinoline-2-carbonyl)-N,1-dimethylcyclohexane-1-carboxamide]: 0.299 µM and 0.0109 µM.

On to `CNC(=O)[C@H]1CCCC[C@H]1C(=O)N1CCc2cccc(O[C@H]3CCN(C(=O)c4cc(C)on4)C3)c2[C@H]1CN1C(=O)c2ccccc2C1=O` [Example 20, (1S,2R)-2-((S)-1-((1,3-dioxoisoindolin-2-yl)methyl)-8-(((S)-1-(5-methylisoxazole-3-carbonyl)pyrrolidin-3-yl)oxy)-1,2,3,4-tetrahydroisoquinoline-2-carbonyl)-N-methylcyclohexane-1-carboxamide], for which, in assay [1], the EC50 is greater than 0.5 µM. In assay [2], inhibition was half-maximal at 0.029 µM (IC50). Take `CNC(=O)N1CCCC[C@H]1C(=O)N1CCc2c(Cl)ccc(OCc3cn(C)nn3)c2[C@H]1CN1CCCC1=O` [Example 92, (S)-2-((S)-5-chloro-8-((1-methyl-1H-1,2,3-triazol-4-yl)methoxy)-1-((2-oxopyrrolidin-1-yl)methyl)-1,2,3,4-tetrahydroisoquinoline-2-carbonyl)-N-methylpiperidine-1-carboxamide]: the EC50 in assay [1] came to 0.565 µM. Moreover, the IC50 in assay [2] stood at 0.012 µM. The corresponding values for `CNC(=O)[C@H]1CCCC[C@H]1C(=O)N1CCc2c(Cl)ccc(OCc3cccnc3)c2[C@H]1CN1CCCC1=O` [Example 60, (1S,2R)-2-((S)-5-chloro-1-((2-oxopyrrolidin-1-yl)methyl)-8-(pyridin-3-ylmethoxy)-1,2,3,4-tetrahydroisoquinoline-2-carbonyl)-N-methylcyclohexane-1-carboxamide] are 0.65 µM and 0.072 µM. As for `CNC(=O)CCCC(=O)N1CCc2cccc(O[C@H]3CCN(C(=O)c4cncs4)C3)c2[C@H]1CN1C(=O)c2ccccc2C1=O` [Example 40, 5-((S)-1-((1,3-dioxoisoindolin-2-yl)methyl)-8-(((S)-1-(thiazole-5-carbonyl)pyrrolidin-3-yl)oxy)-3,4-dihydroisoquinolin-2(1H)-yl)-N-methyl-5-oxopentanamide], the IC50 in assay [2] came to 0.523 µM. Same read-out and setting: in the case of `CCCNC(=O)[C@H]1CCCC[C@H]1C(=O)N1CCc2cccc(O[C@H]3CCN(C(=O)c4cncs4)C3)c2[C@H]1CN1C(=O)c2ccccc2C1=O` [Example 29, (1S,2R)-2-((S)-1-((1,3-dioxoisoindolin-2-yl)methyl)-8-(((S)-1-(thiazole-5-carbonyl)pyrrolidin-3-yl)oxy)-1,2,3,4-tetrahydroisoquinoline-2-carbonyl)-N-propylcyclohexane-1-carboxamide] it was 0.166 µM. The same measure, in the same setting: under `CNC(=O)[C@H]1CCCC[C@H]1C(=O)N1CCc2cccc(O[C@H]3CCN(S(=O)(=O)c4cnoc4C)C3)c2[C@H]1CN1C(=O)c2ccccc2C1=O` [Example 16, (1S,2R)-2-((S)-1-((1,3-dioxoisoindolin-2-yl)methyl)-8-(((S)-1-((5-methylisoxazol-4-yl)sulfonyl)pyrrolidin-3-yl)oxy)-1,2,3,4-tetrahydroisoquinoline-2-carbonyl)-N-methylcyclohexane-1-carboxamide] stands 0.366 µM.

For the origin of these results see patent US20230159511A1, “TETRAHYDROISOQUINOLINE COMPOUNDS AS NRF2 ACTIVATORS” (C4X Discovery Limited, priority 2020, published 2023).
